Measurements as given in patent publication US7071168B2, “Anti-cancer compounds and methods related thereto” (The Regents of the University of Colorado, priority 1998, dated 2006).
Non-standard residues stand in square brackets, D forms with d. No end group written: not given here. Oic = O=C(O)[C@@H]1C[C@@H]2CCCC[C@@H]2N1; dTic = O=C(O)[C@H]1Cc2ccccc2CN1

System: bradykinin response of isolated guinea pig ileum
Assay: Anti-bradykinin activity on isolated guinea pig ileum
Conditions: Table 1; higher numbers indicate higher potency
Method: (§1) In general, Anti-bradykinin activity was determined by the classical guinea pig ileum assay and on Chinese hamster ovary (CHO) cells expressing cloned human bradykinin B2 receptors. Anti-tumor activity was determined on cultured human cancer cell lines using the standard tetrazolium (MTT) assay.
Male Hartley guinea pigs that had been deprived of food overnight were sacrificed, and sections of terminal ileum, 25 mm in length, were dissected, attached to tissue holders and immersed in 10 ml tissue baths containing Krebs' solution bubbled with 95% O2/5% CO2. Tissues were placed under 1 g tension and incubated for 1 h equilibration. Concentration-effect curves were constructed to bradykinin in the absence and presence of new compounds.

Compound | GPI: pA2 for bradykinin antagonist activity on isolated guinea pig ileum
Aaa-DTic-hPhe-Arg [M764] | 4.8
Ac-PaF(Dcg)-p-ABz-Arg [M146-2] | 4.9
Ac-PaF(Mcg)-Arg [M118-1] | 4.9
Ac-PaF(Mcg)-p-ABz-Arg [M146-1] | Inact
Ac-Pac-Gly-m-Abz-2-Nal-Arg [M198] | 5.1
Ac-PdF-Arg [M118-3] | 5.4
Aca-DArg-Arg-Pro-Hyp-Gly-Thi-Ser-(D,L)Igl-Oic-Arg [B9224-2] | 8.4
Arg-Eac-DIgl-Ana-Arg [M406] | Inact
DArg-Arg-NMF-Hyp-Gly-Thi-Ser-DIgl-Oic-Arg [B9966] | 6.9
DArg-Arg-Nig-Hyp-Gly-Igl-Ser-DIgl-Oic-Arg [B9960] | 7.7
DArg-Arg-Pro-Hyp-Gly-CpG-Ser-DCpG-CpG-Arg [B8838] | 7.0
DArg-Arg-Pro-Hyp-Gly-Igl-Ser-DIgl-Nc7G-Arg [B10010] | 7.7
DArg-Arg-Pro-Hyp-Gly-Phe-Ser-DCpG-CpG-Arg [B8840] | 6.8
DArg-Arg-Pro-Hyp-Gly-Thi-Ser-CpG-DCpG-DArg [B8858] | 5.2
DArg-Arg-Pro-Hyp-Gly-Thi-Ser-DTic-Nc6G-Arg [B10014] | 7.6
DDD-(DArg-hPhe-Arg)2 [M554] | 5.1
DDD-(Eac-Arg-Digl-Oic-Arg)2 [B10198-1] | 5.7
Dcg-2-Nal-Atpc-Arg [M232-3] | 5.1
Dcg-2Nal-Arg [M10] | 4.8
Dcg-(D,L)Ata-Arg [M96] | 4.7

Compound | GPI: pA2 for bradykinin antagonist activity on isolated guinea pig ileum
Dcg-Ac6c-Arg [M86] | 5.0
Dcg-Apa-Arg [M78] | 5.6
Dcg-Atpc-Arg [M232-1] | 4.7
Dcg-BtA-Arg [M68] | 4.9
Dcg-Gly-Cmp-Arg [M124] | 4.7
Dcg-Igl-Arg [M70] | 4.8
Dcg-Ile-Arg [M84] | 5.1
Dcg-Pac-Gly-m-ABz-2-Nal-Arg [M200-2] | 4.9
Dcg-Trx-Arg [M134] | 4.9
Dcg-p-Amb-Arg [M346] | 4.6
Dhq-DArg-Arg-Pro-Hyp-Gly-CpG-Ser-DCpG-CpG-Arg [B9074] | 6.3
F5c-APb-Arg [M372] | 4.6
F5c-Ana-Arg [M392] | 4.5
F5c-Bip-Arg [M394] | 4.7
F5c-DArg-Arg-Aud-DTic-hPhe-Arg [M766] | 5.1
F5c-DhPhe-Arg [M730] | 4.7
F5c-Dpr(Fbz)-Arg [M688] | Inact
F5c-Dpr(Paa)-Arg [M690] | 4.8
F5c-Lys(F5bz)-Arg [M682] | 4.9
F5c-Lys{(CH3)3}-Arg [M388] | 4.9

Compound | GPI: pA2 for bradykinin antagonist activity on isolated guinea pig ileum
F5c-PNF-Arg [M732] | 4.9
F5c-Pac-Arg [M398] | Inact
F5c-Phe-Arg [M410] | 5.4
F5c-Thi-Arg [M424] | 4.6
F5c-Tic-Arg [M382] | 4.7
F5c-Trp-Arg [M426] | Inact
F5c-Tyr-Arg [M380] | Inact
F5c-m-APa-Arg [M412] | 5.8
F5c-p-ABz-Arg [M148] | 5.1
F5c-p-Amb-APa-Arg [M352] | 4.7
F5c-p-Amb-Arg [M348] | 4.7
Gun-2-Nal-Arg [M20] | 4.6
Gun-Eac-DIgl-Oic-Arg [M42] | 5.0
Gun-Ica-Arg [M88] | 4.7
Mcg-Pac-Gly-m-ABz-2-Nal-Arg [M200-1] | Inact
RPPGFT[dTic][Oic]-NH2 [B10284] | 7.7
RPPGFT[dTic][Oic]R [B10282] | 7.3
ε-SUB-(Lys-DArg-Arg-Eac-Ser-DF5F-Nc7G-Arg)2 [M1038] | 6.4

Same assay, conditions: guinea pig ileum

Compound | pD2 of bradykinin on ileum
RPPGFSPFR [BK, reference compound] | 7.4

System: SCLC strain SHP-77
Assay: Colorimetric tetrazolium (MTT) assay for cell survival, SCLC strain SHP-77
Assay type: cell-based, human
Conditions: SCLC strain SHP-77 in vitro
Method: as §1
Cell growth and survival were measured by a rapid colorimetric assay based on the tetrazolium salt MTT (3-(4,5-dimethylthiazol-2-yl)-2,5-diphenyl tetrazolium bromide) (Mosmann, J Immunol. Methods 65: 55–63, 1983, with minor modifications). Briefly, 1,000 normal lung fibroblasts or normal epithelial BEAS-2B cells, 1,000 or 5,000 viable non-SCLC cells or 10,000 viable SCLC cells were plated in 100 μL of growth medium in 96-well flat-bottomed microtiter plates. Cells were incubated overnight to allow recovery. Compounds to be tested were added to the cells in triplicate in a range of concentrations and the cells were incubated at 37° C., 5% CO2, with 100% humidity. Control cells were treated in the same way without antagonists. […] Plates were incubated for 4 days, allowing sufficient time for cell replication and compound-induced cell death to occur. On day 5, 25 μL of a 2 mg/mL solution of MTT (Sigma) dissolved in RMPI-1640was added to each well. The plate was incubated for 4 h at 37° C. The supernate was removed and the blue formazan complex was dissolved by adding 100 μL of 0.02 N HCl in 75% isopropanol to all wells. Absorbance was immediately determined using a scanning multiwell plate reader. B9870 caused 50% cell death at a concentration of 0.15 μM under these conditions.

Compound | MTT: ED50 for killing of SCLC strain SHP-77 in vitro
CC1(C)CC(NC(=O)[C@@H](NC(=N)CCCCCCCCCCCCC(=O)O)C2Cc3ccccc3C2)CC(C)(C)N1 [M280-1] | 21 µM
CC1(C)CC(NC(=O)C(Cc2ccc3ccccc3c2)NC(=O)CCCCCNC(=O)c2cc(C(=O)NCCCCCC(=O)NC(Cc3ccc4ccccc4c3)C(=O)NC3CC(C)(C)NC(C)(C)C3)cc(C(=O)NCCCCCC(=O)NC(Cc3ccc4ccccc4c3)C(=O)NC3CC(C)(C)NC(C)(C)C3)c2)CC(C)(C)N1 (stereo not drawn) [M290-2] | 20 µM
CC1(C)CC(NC(=O)C(NC(=O)C=Cc2ccc(N)cc2)C2Cc3ccccc3C2)CC(C)(C)N1 (stereo not drawn) [M292] | 40 µM
CC1(C)CC(NC(=O)C(Cc2ccc(-c3ccccc3)cc2)NC(=O)C=Cc2cccnc2)CC(C)(C)N1 (stereo not drawn) [M296] | 15 µM
CC1(C)CC(NC(=O)C(Cc2ccc3ccccc3c2)NC(=O)c2ccc(NC(=N)N)cc2)CC(C)(C)N1 (stereo not drawn) [M306] | >100 µM
CC1(C)CC(NC(=O)C(Cc2ccc(O)cc2)NC(=O)C=Cc2c(F)c(F)c(F)c(F)c2F)CC(C)(C)N1 (stereo not drawn) [M316] | 50 µM
CC1(C)CC(NC(=O)C2CC3CCCCC3N2C(=O)C=Cc2c(F)c(F)c(F)c(F)c2F)CC(C)(C)N1 (stereo not drawn) [M320] | 13 µM
CC1(C)CC(NC(=O)C2Cc3ccccc3CN2C(=O)C=Cc2c(F)c(F)c(F)c(F)c2F)CC(C)(C)N1 (stereo not drawn) [M322] | 7.6 µM
Cc1cc(NC(=O)c2cccc(NC(=O)CNC(=O)/C=C/c3cccnc3)c2)c2ccccc2n1 [M428] | >300 µM
CC1(C)CC(NC(=O)C(Cc2csc3ccccc23)NC(=NC2CCCCC2)NC2CCCCC2)CC(C)(C)N1 (stereo not drawn) [M440] | 30 µM
O=C(CCCCCCCCCCC(=O)N[C@@H](Cc1cccnc1)C(=O)N[C@@H](Cc1ccc2ccccc2c1)C(=O)NC1CCCCC1)N[C@@H](Cc1cccnc1)C(=O)N[C@@H](Cc1ccc2ccccc2c1)C(=O)NC1CCCCC1 [M460] | 15 µM
O=C(C=Cc1c(F)c(F)c(F)c(F)c1F)NC(Cc1ccc2ccccc2c1)C(=O)NCc1cccnc1 (stereo not drawn) [M466] | Inact
CN(C)CCCNC(=O)[C@H](Cc1ccc2ccccc2c1)NC(=O)C=Cc1ccc(NC(=O)CCCCCCCCCCC(=O)Nc2ccc(C=CC(=O)N[C@@H](Cc3ccc4ccccc4c3)C(=O)NCCCN(C)C)cc2)cc1 [M538] | >80 µM
CCOC(=O)CN1C(C)(C)CC(NC(=O)C(Cc2ccc3ccccc3c2)NC(=O)C(C2CCCCC2)C2CCCCC2)CC1(C)C (stereo not drawn) [M572] | 2.6 µM
COC(=O)C(Cc1ccc(OCc2ccccc2)cc1)N(Cc1ccc(N(C)C)cc1)C(=O)C=Cc1c(F)c(F)c(F)c(F)c1F (stereo not drawn) [M614] | 9.1 µM

Same assay, conditions: Table 1; SHP-77, MTT, 4 days

Compound | MTT: ED50 for killing of SCLC strain SHP-77 in vitro
33Dp-DArg-Arg-Aud-Ser-D5F5-Oic-Arg [M964] | 4 to 8 µM
